The subject of one assay is HT-29. Kind of assay: Antiproliferative activity against human HT-29 cells at 10 uM after 72 hrs by MTS assay. To be noted: HT-29, 72 h. The class given is functional. In general terms: Tetrazolium dyes change colour on reduction, which living cells bring about.
The test system of another assay is NCI-H522. Kind of assay: Growth inhibition of human NCI-H522 cells at 10 uM after 48 hrs by sulforhodamine B assay. Format: functional. To be noted: NCI-H522, 48 h, read-out: GI. (In general: In SRB staining, fixed cells bind dye roughly in proportion to their protein.)
The test system of a further assay is SK-MEL-5. Kind of assay: Growth inhibition of human SK-MEL-5 cells at 10 uM after 48 hrs by sulforhodamine B assay. To be noted: SK-MEL-5, 48 h, read-out: GI. Format: functional.
Another assay deals with SR. Kind of assay: Growth inhibition of human SR cells after 48 hrs by sulforhodamine B assay. Format: functional.
Assay [1] can be described thus: Growth inhibition of human HOP62 cells after 48 hrs by sulforhodamine B assay. The class given is functional. The following applies: HOP-62, 48 h.
The nature of assay [2]: Growth inhibition of human HCT116 cells after 48 hrs by sulforhodamine B assay. Format: functional. To be noted: HCT-116, 48 h.
Another assay concerns MDA-MB-435. Nature of the assay: Growth inhibition of human MDA-MB-435 cells after 48 hrs by sulforhodamine B assay. The class given is functional. To be noted: MDA-MB-435, 48 h.
The nature of assay [3]: Growth inhibition of human NCI-ADR-RES cells after 48 hrs by sulforhodamine B assay. Format: functional.
The nature of assay [4]: Growth inhibition of human DU145 cells after 48 hrs by sulforhodamine B assay. The following applies: DU-145, 48 h. Format: functional.
In the next assay the test system is MCF7. Nature of the assay: Growth inhibition of human MCF7 cells after 48 hrs by sulforhodamine B assay. Format: functional. To be noted: MCF7, 48 h.
Assay [5] can be described thus: Cytotoxicity against human OVCAR3 cells assessed as cell growth at 10 uM after 48 hrs by sulforhodamine B assay. Format: functional. The following applies: OVCAR-3, 48 h, read-out: Activity.
For assay [6], the system named is HUVEC. Kind of assay: Inhibition of cell invasion of HUVEC at 0.01 uM after 24 hrs by crystal violet staining based Boyden chamber assay. Format: functional. To be noted: Homo sapiens.
Assay [7] deals with HUVEC. Kind of assay: Antiangiogenic activity in HUVEC assessed as disruption of capillaries after 6 hrs by inverted microscopic analysis. Format: functional, cell-based. The following applies: Homo sapiens.
For assay [8], the system named is HUVEC. Nature of the assay: Cytotoxicity against HUVEC assessed as inhibition of cell proliferation after 72 hrs by MTS assay. The class given is cell-based. The following applies: Homo sapiens.

A word on the inhibition: it is the percentage by which the read-out fell short of the control. The low end stands for a weak effect, the high end for a strong effect. As usually defined, the GI50 is the concentration that inhibits growth by half. A word on the IC50: it is the midpoint of a concentration-inhibition curve. `COc1ccc(-c2nnc3n(C)c(=O)c4ccccc4n23)cc1O` came in with an inhibition at 10 µM with HT-29 of 71%. Besides, the inhibition of growth at 10 µM in the assay with NCI-H522 was 100%; in the assay with SK-MEL-5, 75%. In addition, the GI50 in the assay with SR is 31 nM; in assay [1] it was 48 nM; in [2] it was 57 nM; in the assay with MDA-MB-435, 23 nM; in assay [3] it was 62 nM; in assay [4] it was 2360 nM. The compound further showed a GI50 in the assay with MCF7 of 48 nM. For the same compound, the growth at 10 µM in [5] amounted to 16%. The same compound had an inhibition at 0.01 µM in the assay on HUVEC [6] of 12%. Besides, in the assay with HUVEC [7], the Activity entry was “Dose-dependent effect”. The IC50 in the assay on HUVEC [8] is 2480 nM.
